Assay results published in patent US7182954B1, “Prebiotic oligosaccharides via alternansucrase acceptor reactions” (priority 2003, dated 2007).

Assays:
[1] = test system: Lactobacillus acidophilus 4356; assay: Oligosaccharide utilization (growth) by colonic bacteria; assay type: cell-based; details: 0.5% oligosaccharide preparation, anaerobic, 5 days, 37° C
[2] = test system: Bifidobacterium adolescentis 15703; assay: as above; assay type: cell-based; details: 0.5% oligosaccharide preparation, anaerobic, 5 days, 37° C
[3] = test system: Enterobacter aerogenes 35028; assay: as above; assay type: cell-based; details: 0.5% oligosaccharide preparation, anaerobic, 5 days, 37° C
[4] = test system: Bifidobacterium infantis 15697; assay: as above; assay type: cell-based; details: 0.5% oligosaccharide preparation, anaerobic, 5 days, 37° C
[5] = test system: Salmonella typhimurium 14028; assay: as above; assay type: cell-based, Salmonella choleraesuis (typhimurium); details: 0.5% oligosaccharide preparation, anaerobic, 5 days, 37° C
Lactobacillus GG 53103 = assay: as above; assay type: cell-based, Lactobacillus rhamnosus GG; details: 0.5% oligosaccharide preparation, anaerobic, 5 days, 37° C
[6] = test system: Bifidobacterium bifidum 29521; assay: as above; assay type: cell-based; details: 0.5% oligosaccharide preparation, anaerobic, 5 days, 37° C
Escherchia coli 8739 = assay: as above; assay type: cell-based, Escherichia coli; details: 0.5% oligosaccharide preparation, anaerobic, 5 days, 37° C
alternansucrase = assay: Comparison of acceptor strengths with alternansucrase, relative amount of alternan formed; details: 45 μL 10% (w/v) sucrose, 45 μL 10% (w/v) acceptor, 10 μL alternansucrase, pH 5.4, room temperature; less alternan = stronger acceptor
[7] = test system: Bifidobacterium adolescentis 15705; assay: Oligosaccharide utilization (growth) by colonic bacteria; assay type: cell-based; details: 0.5% oligosaccharide preparation, anaerobic, 5 days, 37° C
[8] = test system: Bifidobacterium thermophilum 25866; assay: as above; assay type: cell-based; details: 0.5% oligosaccharide preparation, anaerobic, 5 days, 37° C
Lactobacillus casei 393 = assay: as above; assay type: cell-based; details: 0.5% oligosaccharide preparation, anaerobic, 5 days, 37° C
[9] = test system: Bacteroides thetaiotaomicron 29148; assay type: cell-based; details: 0.5% oligosaccharide preparation, anaerobic, 5 days, 37° C
[10] = test system: Bifidobacterium boum 27917; assay: Oligosaccharide utilization (growth) by colonic bacteria; assay type: cell-based; details: 0.5% oligosaccharide preparation, anaerobic, 5 days, 37° C
[11] = test system: Clostridium perfringens 13124; assay type: cell-based; details: 0.5% oligosaccharide preparation, anaerobic, 5 days, 37° C
[12] = test system: Bifidobacterium catenulatum 27539; assay: Oligosaccharide utilization (growth) by colonic bacteria; assay type: cell-based; details: 0.5% oligosaccharide preparation, anaerobic, 5 days, 37° C
[13] = test system: Bifidobacterium adolescentis 15706; assay: as above; assay type: cell-based; details: 0.5% oligosaccharide preparation, anaerobic, 5 days, 37° C
[14] = test system: Bifidobacterium pseudocatenulatum 27919; assay: as above; assay type: cell-based; details: 0.5% oligosaccharide preparation, anaerobic, 5 days, 37° C
[15] = test system: Bifidobacterium longum 15707; assay: as above; assay type: cell-based; details: 0.5% oligosaccharide preparation, anaerobic, 5 days, 37° C
[16] = test system: Bifidobacterium breve 15698; assay: as above; assay type: cell-based; details: 0.5% oligosaccharide preparation, anaerobic, 5 days, 37° C
[17] = test system: Bifidobacterium adolescentis 15704; assay: as above; assay type: cell-based; details: 0.5% oligosaccharide preparation, anaerobic, 5 days, 37° C
[18] = test system: Bifidobacterium ruminantium 4939; assay: as above; assay type: cell-based; details: 0.5% oligosaccharide preparation, anaerobic, 5 days, 37° C
[19] = test system: Bifidobacterium gallicum 49850; assay: as above; assay type: cell-based; details: 0.5% oligosaccharide preparation, anaerobic, 5 days, 37° C

O=C[C@H](O)[C@@H](O)[C@H](O)[C@H](O)CO [D-glucose]
Growth (OD600 nm), Lactobacillus acidophilus 4356 [1]: +++ (OD600 nm ≧ 0.60, high growth)
Growth (OD600 nm), Bifidobacterium adolescentis 15703 [2]: +++ (OD600 nm ≧ 0.60, high growth)
Growth (OD600 nm), Enterobacter aerogenes 35028 [3]: +++ (OD600 nm ≧ 0.60, high growth)
Growth (OD600 nm), Bifidobacterium infantis 15697 [4]: +++ (OD600 nm ≧ 0.60, high growth)
Growth (OD600 nm), Salmonella typhimurium 14028 [5]: ++ (OD600 nm 0.31–0.59, medium growth)
Growth (OD600 nm), Lactobacillus GG 53103 (Lactobacillus GG 53103): +++ (OD600 nm ≧ 0.60, high growth)
Growth (OD600 nm), Bifidobacterium bifidum 29521 [6]: +++ (OD600 nm ≧ 0.60, high growth)
Growth (OD600 nm), Escherchia coli 8739 (Escherchia coli 8739): +++ (OD600 nm ≧ 0.60, high growth)
Alternan (Rel. %) (alternansucrase): 53 Rel. %
Growth (OD600 nm), Bifidobacterium adolescentis 15705 [7]: +++ (OD600 nm ≧ 0.60, high growth)
Growth (OD600 nm), Bifidobacterium thermophilum 25866 [8]: +++ (OD600 nm ≧ 0.60, high growth)
Growth (OD600 nm), Lactobacillus casei 393 (Lactobacillus casei 393): +++ (OD600 nm ≧ 0.60, high growth)
Growth (OD600 nm), Bacteroides thetaiotaomicron 29148 [9]: ++ (OD600 nm 0.31–0.59, medium growth)
Growth (OD600 nm), Bifidobacterium boum 27917 [10]: +++ (OD600 nm ≧ 0.60, high growth)
Growth (OD600 nm), Clostridium perfringens 13124 [11]: +++ (OD600 nm ≧ 0.60, high growth)
Growth (OD600 nm), Bifidobacterium catenulatum 27539 [12]: +++ (OD600 nm ≧ 0.60, high growth)
Growth (OD600 nm), Bifidobacterium adolescentis 15706 [13]: +++ (OD600 nm ≧ 0.60, high growth)
Growth (OD600 nm), Bifidobacterium pseudocatenulatum 27919 [14]: +++ (OD600 nm ≧ 0.60, high growth)
Growth (OD600 nm), Bifidobacterium longum 15707 [15]: +++ (OD600 nm ≧ 0.60, high growth)
Growth (OD600 nm), Bifidobacterium breve 15698 [16]: +++ (OD600 nm ≧ 0.60, high growth)
Growth (OD600 nm), Bifidobacterium adolescentis 15704 [17]: +++ (OD600 nm ≧ 0.60, high growth)
Growth (OD600 nm), Bifidobacterium ruminantium 4939 [18]: +++ (OD600 nm ≧ 0.60, high growth)
Growth (OD600 nm), Bifidobacterium gallicum 49850 [19]: +++ (OD600 nm ≧ 0.60, high growth)

OC[C@H]1O[C@@H](O[C@@H]2[C@@H](CO)OC(O)(CO)[C@H]2O)[C@H](O)[C@@H](O)[C@H]1O (mixture of isomers) [lactulose]
Alternan (Rel. %) (alternansucrase): 91 Rel. %

O=C[C@H](O)[C@H](O)[C@H](O)[C@H](O)CO [D-allose]
Alternan (Rel. %) (alternansucrase): 75 Rel. %

O=C(CO)[C@@H](O)[C@H](O)[C@H](O)CO [D-fructose]
Alternan (Rel. %) (alternansucrase): 78 Rel. %

CCCCCCCCCCCCO[C@@H]1O[C@H](CO)[C@@H](O[C@H]2O[C@H](CO)[C@@H](O)[C@H](O)[C@H]2O)[C@H](O)[C@H]1O [β-dodecyl maltoside]
Alternan (Rel. %) (alternansucrase): 83 Rel. %

O=C(CO)[C@H](O)[C@H](O)[C@H](O)CO [D-psicose]
Alternan (Rel. %) (alternansucrase): 85 Rel. %

O=C[C@H](O)[C@@H](O[C@H]1O[C@H](CO)[C@@H](O)[C@H](O)[C@H]1O)[C@H](O)[C@H](O)CO[C@H]1O[C@H](CO)[C@@H](O)[C@H](O)[C@H]1O [3′-O-α-D-Glc isomaltose, 3-O-α-D-glucopyranosyl-6-O-α-D-glucopyranosyl-D-glucose]
Alternan (Rel. %) (alternansucrase): 31 Rel. %

O=C[C@@H](O)[C@@H](O)[C@H](O)CO [D-lyxose]
Alternan (Rel. %) (alternansucrase): 99 Rel. %

O=C[C@@H](O)[C@H](O)[C@@H](O)[C@@H](O)CO [L-glucose]
Alternan (Rel. %) (alternansucrase): 63 Rel. %

O=C[C@H](O)[C@@H](O)[C@H](O[C@@H]1O[C@H](CO)[C@@H](O)[C@H](O)[C@H]1O)[C@H](O)CO [cellobiose]
Alternan (Rel. %) (alternansucrase): 72 Rel. %

OC[C@H]1O[C@H](OC[C@H]2O[C@H](OC[C@H]3OC(O)[C@H](O)[C@@H](O)[C@@H]3O)[C@H](O)[C@@H](O)[C@@H]2O)[C@H](O)[C@@H](O)[C@@H]1O (stereo partly shown) [isomaltotriose]
Alternan (Rel. %) (alternansucrase): 50 Rel. %

O=C(CO)[C@@H](O[C@H]1O[C@H](CO)[C@@H](O)[C@H](O)[C@H]1O)[C@H](O)[C@H](O)CO [turanose]
Alternan (Rel. %) (alternansucrase): 57 Rel. %

CO[C@H]1O[C@H](CO)[C@H](O)[C@H](O)[C@H]1O [α-methyl-D-galactoside, α-methyl-D-galactopyranoside]
Alternan (Rel. %) (alternansucrase): 73 Rel. %

O=CC[C@H](O)[C@H](O)CO [2-deoxy-D-ribose]
Alternan (Rel. %) (alternansucrase): 81 Rel. %

O=C[C@H](O)[C@H](O)[C@H](O)CO [D-ribose]
Alternan (Rel. %) (alternansucrase): 93 Rel. %
